System: sleep-deprived healthy volunteers
Experiment: Polysomnography (PSG) of recovery sleep after sleep deprivation in healthy volunteers
Type: in vivo, human
Procedure: Exploratory objectives in sleep-deprived healthy volunteers were as follows: • 1. To compare the effects of Compound A (LD and HD) and modafinil (300 mg) on promoting wakefulness as measured by MWT. • 2. To determine PK-PD relationships for selected PD measures. • 3. To evaluate PK-BP relationships in BP change after Compound A administration. • 4. To compare various polysomnography (PSG) parameters between Day −1 (predose) and Day 2 (recovery sleep). • 5. To determine whether there is any difference in the PSG parameters on Day 2 (recovery sleep) between Compound A and placebo or modafinil. • 6. To evaluate the continuous electroencephalogram (EEG) obtained during the MWTs for power spectra changes for Compound A (LD and HD) versus placebo, Compound A (LD and HD) versus modafinil, and modafinil versus placebo.
During the day before dosing on Day 1, participants were administered the KSS at scheduled timepoints. A practice MWT session was performed on Day 1 treatment period 1 (only once during the entire study) to familiarize subjects with the procedures. Study drug was administered in the clinic in the evening on Day 1 of each treatment period. Subjects underwent the MWT and KSS at specified timepoints after the start of the infusion. Subjects were required to stay awake between the MWT tests. Following completion of the IV infusion on Day 2, subjects underwent an additional MWT test. When the final MWT test and cognitive testing were completed, subjects were allowed to sleep (recovery sleep) for approximately 6 hours. PSG recording was collected during this time. Subjects were discharged from the unit after completion on Day 2 with continuing actigraphy upon discharge (to begin on Day −6 before the next treatment period). The interval between each subsequent treatment period was at least 7 days to ensure that the subject's circadian rhythm had returned to a normal cycle. Subject's vital signs, including BP, were monitored during the dosing and testing period. Blood samples for determination of Compound A plasma concentrations were collected at specified timepoints on Days 1 and 2 of each treatment period. Subjects completed the Columbia-Suicide Severity Rating Scale (C-SSRS) during screening, before study drug administration, and before discharge on Day 2 of each treatment period.
The PSGs assess recovery sleep during the day after the end of the sleep deprivation period. There were no corrections for multiple comparisons. […]

[1] = HD: Compound A 112 mg, recovery sleep
[2] = LD: Compound A 44 mg, recovery sleep

In the case of `COC(=O)N1CCC[C@H](NS(C)(=O)=O)[C@@H]1CO[C@H]1CC[C@@H](c2ccccc2)CC1` [Compound A, methyl (2R,3S)-3-((methylsulfonyl)amino)-2-(((cis-4-phenylcyclohexyl)oxy)methyl)piperidine-1-carboxylate], the “PSG Stage N3 % LS Mean” value [1] is reported as 29.36%, the “PSG Stage N3 % LS Mean Difference vs Placebo Estimate” value [1] is reported as 3.53% and the “Stage N3 Duration LS Mean” value (LD: Compound A 44 mg) is reported as 81.05 min. For the same compound, the “Stage N3 Duration LS Mean Difference vs placebo Estimate” value (LD: Compound A 44 mg) was -0.34 min, the “Stage REM % LS Mean” value (LD: Compound A 44 mg) was 20.70% and the “Stage REM % LS Mean Difference vs placebo Estimate” value (LD: Compound A 44 mg) was −0.68%. The “Stage REM Duration LS Mean” value (LD: Compound A 44 mg) was 60.76 min, the “Stage REM Duration LS Mean Difference vs placebo Estimate” value (LD: Compound A 44 mg) was -5.80 min and the “Stage Wake % LS Mean” value (LD: Compound A 44 mg) was 10.65%. For the same compound, the “Stage Wake % LS Mean Difference vs placebo Estimate” value (LD: Compound A 44 mg) was 0.35%, the “Stage Wake Duration LS Mean” value (LD: Compound A 44 mg) was 35.55 min and the “Stage Wake Duration LS Mean Difference vs placebo Estimate” value (LD: Compound A 44 mg) was 0.02 min. The “Total Arousal Index LS Mean” value (LD: Compound A 44 mg) was 10.07, the “Total Arousal Index LS Mean Difference vs placebo Estimate” value (LD: Compound A 44 mg) was 0.08 and the “Total Arousal LS Mean” value (LD: Compound A 44 mg) was 47.56. The “Total Arousal LS Mean Difference vs placebo Estimate” value (LD: Compound A 44 mg) was −2.85, the “Total Leg Movements LS Mean” value (LD: Compound A 44 mg) was 12.59 and the “Total Leg Movements LS Mean Difference vs placebo Estimate” value (LD: Compound A 44 mg) was −6.35. For the same compound, the “Total Leg Movements N1 LS Mean” value (LD: Compound A 44 mg) was 1.60, the “Total Leg Movements N1 LS Mean Difference vs placebo Estimate” value (LD: Compound A 44 mg) was 0.34 and the “Total Leg Movements N2 LS Mean” value (LD: Compound A 44 mg) was 6.04. For the same compound, the “Total Leg Movements N2 LS Mean Difference vs placebo Estimate” value (LD: Compound A 44 mg) was −2.51, the “Total Leg Movements N3 LS Mean” value (LD: Compound A 44 mg) was 0.65 and the “Total Leg Movements N3 LS Mean Difference vs placebo Estimate” value (LD: Compound A 44 mg) was −0.97. For the same compound, the “Total Leg Movements REM LS Mean” value (LD: Compound A 44 mg) was 3.44, the “Total Leg Movements REM LS Mean Difference vs placebo Estimate” value (LD: Compound A 44 mg) was −2.31 and the “Total Leg Movements with Awakening LS Mean” value (LD: Compound A 44 mg) was 0.68. For the same compound, the “Total Leg Movements with Awakening LS Mean Difference vs placebo Estimate” value (LD: Compound A 44 mg) was −1.07, the “Total Leg Movements with Microarous LS Mean” value (LD: Compound A 44 mg) was 2.35 and the “Total Leg Movements with Microarous LS Mean Difference vs placebo Estimate” value (LD: Compound A 44 mg) was 0.34. The “Total Leg Movements with Resp Event LS Mean” value (LD: Compound A 44 mg) was 0.16, the “Total Leg Movements with Resp Event LS Mean Difference vs placebo Estimate” value (LD: Compound A 44 mg) was 0.11 and the “Total Leg Movements without Arousal LS Mean” value (LD: Compound A 44 mg) was 10.21. For the same compound, the “Total Leg Movements without Arousal LS Mean Difference vs placebo Estimate” value (LD: Compound A 44 mg) was −6.71, the “Total Recording Time LS Mean” value (LD: Compound A 44 mg) was 342.50 min and the “Total Recording Time LS Mean Difference vs placebo Estimate” value (LD: Compound A 44 mg) was -14.40 min. For the same compound, the “Total Sleep Time LS Mean” value (LD: Compound A 44 mg) was 291.34 min, the “Total Sleep Time LS Mean Difference vs Placebo Estimate” value (LD: Compound A 44 mg) was -18.13 min and the “Wake After Persistent Sleep LS Mean” value (LD: Compound A 44 mg) was 33.78 min. The “Wake After Persistent Sleep LS Mean Difference vs placebo Estimate” value (LD: Compound A 44 mg) was -0.85 min, the “Wake After Sleep Onset LS Mean” value (LD: Compound A 44 mg) was 35.55 min and the “Wake After Sleep Onset LS Mean Difference vs placebo Estimate” value (LD: Compound A 44 mg) was 0.02 min. For the same compound, the “PSG Awakenings LS Mean” value [2] was 4.74, the “PSG Awakenings LS Mean Difference vs Placebo Estimate” value [2] was 0.25 and the “PSG N1 Latency LS Mean” value [2] was 3.60 min. For the same compound, the “PSG N1 Latency LS Mean Difference vs Placebo Estimate” value [2] was -1.76 min, the “PSG N2 Latency LS Mean” value [2] was 3.91 min and the “PSG N2 Latency LS Mean Difference vs Placebo Estimate” value [2] was -2.74 min. For the same compound, the “PSG N3 Latency LS Mean” value [2] was 21.94 min, the “PSG N3 Latency LS Mean Difference vs Placebo Estimate” value [2] was -5.33 min and the “PSG Per. Slp LS Mean” value [2] was 5.96 min. For the same compound, the “PSG Per. Slp LS Mean Difference vs Placebo Estimate” value [2] was -0.91 min, the “PSG REM Latency LS Mean” value [2] was 75.10 min and the “PSG REM Latency LS Mean Difference vs Placebo Estimate” value [2] was 20.16 min. For the same compound, the “PSG Sleep Efficiency LS Mean” value [2] was 84.95%, the “PSG Sleep Efficiency LS Mean Difference vs Placebo Estimate” value [2] was −1.77% and the “PSG Sleep Onset LS Mean” value [2] was 2.71 min. For the same compound, the “PSG Sleep Onset LS Mean Difference vs Placebo Estimate” value [2] was -1.28 min, the “PSG Spontaneous Arousal Index LS Mean” value [2] was 8.58 and the “PSG Spontaneous Arousal Index LS Mean Difference vs Placebo Estimate” value [2] was −0.36. The “PSG Spontaneous Arousal LS Mean” value [2] was 40.21, the “PSG Spontaneous Arousal LS Mean Difference vs Placebo Estimate” value [2] was −4.86 and the “PSG Stage N1 % LS Mean” value [2] was 5.69%. The “PSG Stage N1 % LS Mean Difference vs Placebo Estimate” value [2] was −0.39%, the “PSG Stage N1 Duration LS Mean” value [2] was 16.29 min and the “PSG Stage N1 Duration LS Mean Difference vs Placebo Estimate” value [2] was -2.12 min. The “PSG Stage N2 % LS Mean” value [2] was 46.04%, the “PSG Stage N2 % LS Mean Difference vs Placebo Estimate” value [2] was −0.66% and the “PSG Stage N2 Duration LS Mean” value [2] was 134.21 min. For the same compound, the “PSG Stage N2 Duration LS Mean Difference vs Placebo Estimate” value [2] was -9.86 min, the “PSG Stage N3 % LS Mean” value [2] was 27.65% and the “PSG Stage N3 % LS Mean Difference vs Placebo Estimate” value [2] was 1.82%. For the same compound, the “PSG sleep efficiency, arousals, and total sleep compared with placebo” value (both Compound A groups (44 and 112 mg), recovery sleep) was “not different from placebo”.

Source: patent US20220331303A1, “USE OF AN OREXIN 2 RECEPTOR AGONIST FOR THE TREATMENT OF EXCESSIVE SLEEPINESS” (Takeda Pharmaceutical Company Limited, priority 2019, published 2022)
